ChEMBL document CHEMBL4800730 (2021)

Assays:
[1] = molecular target: Cytoplasmic tyrosine-protein kinase BMX (Homo sapiens) (UniProt P51813); assay: BMX SelectScreen Kinase panel (LifeTechnologies); settings: Compound concentration 1.0 uM
[2] = molecular target: Receptor tyrosine-protein kinase erbB-2 (Homo sapiens) (UniProt P04626); assay: ERBB2 (HER2) SelectScreen Kinase panel (LifeTechnologies); settings: Compound concentration 1.0 uM
[3] = molecular target: Serine/threonine-protein kinase D2 (Homo sapiens) (UniProt Q9BZL6); assay: PRKD2 (PKD2) SelectScreen Kinase panel (LifeTechnologies); settings: Compound concentration 1.0 uM
Sequence of Serine/threonine-protein kinase D2 (Homo sapiens) (Q9BZL6 whole entry): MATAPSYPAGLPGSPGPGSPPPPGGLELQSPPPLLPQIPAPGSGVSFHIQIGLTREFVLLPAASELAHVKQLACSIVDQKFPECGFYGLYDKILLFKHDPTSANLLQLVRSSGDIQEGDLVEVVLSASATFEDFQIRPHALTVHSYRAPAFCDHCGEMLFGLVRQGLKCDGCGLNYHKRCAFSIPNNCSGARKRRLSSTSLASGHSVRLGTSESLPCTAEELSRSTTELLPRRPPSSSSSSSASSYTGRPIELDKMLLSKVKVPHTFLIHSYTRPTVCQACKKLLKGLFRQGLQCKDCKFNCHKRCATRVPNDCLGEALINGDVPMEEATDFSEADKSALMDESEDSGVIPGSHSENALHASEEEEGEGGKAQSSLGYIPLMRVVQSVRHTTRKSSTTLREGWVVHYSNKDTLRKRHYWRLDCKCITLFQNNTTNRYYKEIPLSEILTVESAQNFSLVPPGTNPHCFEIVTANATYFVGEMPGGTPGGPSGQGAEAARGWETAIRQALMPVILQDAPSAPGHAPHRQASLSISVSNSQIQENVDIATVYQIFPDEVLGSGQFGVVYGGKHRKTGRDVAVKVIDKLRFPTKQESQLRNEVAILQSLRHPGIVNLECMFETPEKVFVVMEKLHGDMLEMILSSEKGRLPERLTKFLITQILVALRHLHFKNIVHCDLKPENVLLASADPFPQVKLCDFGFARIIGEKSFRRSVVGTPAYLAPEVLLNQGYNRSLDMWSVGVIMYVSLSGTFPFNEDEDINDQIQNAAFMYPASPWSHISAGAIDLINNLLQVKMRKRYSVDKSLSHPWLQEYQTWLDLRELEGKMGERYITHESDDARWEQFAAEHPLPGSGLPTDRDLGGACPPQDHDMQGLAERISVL

[4] = molecular target: cGMP-dependent protein kinase 2 (Homo sapiens) (UniProt Q13237); assay: PRKG2 (PKG2) SelectScreen Kinase panel (LifeTechnologies); settings: Compound concentration 1.0 uM
Sequence of cGMP-dependent protein kinase 2 (Homo sapiens) (Q13237 whole entry): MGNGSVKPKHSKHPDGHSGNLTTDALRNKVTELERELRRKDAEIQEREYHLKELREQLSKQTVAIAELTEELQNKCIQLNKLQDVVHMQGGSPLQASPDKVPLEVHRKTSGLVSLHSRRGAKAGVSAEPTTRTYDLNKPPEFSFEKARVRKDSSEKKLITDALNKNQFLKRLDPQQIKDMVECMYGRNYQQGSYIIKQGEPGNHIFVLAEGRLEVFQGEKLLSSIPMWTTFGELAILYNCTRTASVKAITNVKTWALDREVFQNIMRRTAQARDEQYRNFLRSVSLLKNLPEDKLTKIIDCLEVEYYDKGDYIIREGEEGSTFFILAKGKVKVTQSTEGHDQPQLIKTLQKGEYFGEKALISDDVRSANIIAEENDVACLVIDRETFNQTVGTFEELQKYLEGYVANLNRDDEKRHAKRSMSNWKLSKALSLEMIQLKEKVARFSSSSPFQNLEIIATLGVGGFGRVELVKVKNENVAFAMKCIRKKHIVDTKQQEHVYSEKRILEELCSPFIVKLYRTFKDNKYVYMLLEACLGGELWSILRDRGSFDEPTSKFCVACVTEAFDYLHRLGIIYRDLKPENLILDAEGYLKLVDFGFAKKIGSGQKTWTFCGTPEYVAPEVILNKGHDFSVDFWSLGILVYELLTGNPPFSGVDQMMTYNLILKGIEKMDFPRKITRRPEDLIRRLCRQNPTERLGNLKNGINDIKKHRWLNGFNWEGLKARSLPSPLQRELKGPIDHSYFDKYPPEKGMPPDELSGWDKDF

[5] = molecular target: 5-hydroxytryptamine receptor 1D (Homo sapiens) (UniProt P28221); settings: Compound concentration 10.0 uM
[6] = molecular target: D(2) dopamine receptor (Homo sapiens) (UniProt P14416); settings: Compound concentration 10.0 uM
Sequence of D(2) dopamine receptor (Homo sapiens) (P14416 whole entry): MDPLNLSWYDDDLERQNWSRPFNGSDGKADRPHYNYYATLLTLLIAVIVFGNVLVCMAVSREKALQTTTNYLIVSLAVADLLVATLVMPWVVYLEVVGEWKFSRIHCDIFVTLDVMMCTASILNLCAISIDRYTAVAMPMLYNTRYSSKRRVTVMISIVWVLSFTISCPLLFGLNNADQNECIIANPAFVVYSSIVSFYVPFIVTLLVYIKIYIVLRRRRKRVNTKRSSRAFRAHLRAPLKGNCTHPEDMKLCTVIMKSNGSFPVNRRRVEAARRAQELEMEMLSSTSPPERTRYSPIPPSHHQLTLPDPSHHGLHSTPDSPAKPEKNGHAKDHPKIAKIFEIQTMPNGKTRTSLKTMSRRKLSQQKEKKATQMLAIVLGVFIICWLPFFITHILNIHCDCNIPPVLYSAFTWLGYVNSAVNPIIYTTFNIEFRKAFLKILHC

[7] = molecular target: Sodium-dependent noradrenaline transporter (Homo sapiens) (UniProt P23975); settings: Compound concentration 10.0 uM
Sequence of Sodium-dependent noradrenaline transporter (Homo sapiens) (P23975 whole entry): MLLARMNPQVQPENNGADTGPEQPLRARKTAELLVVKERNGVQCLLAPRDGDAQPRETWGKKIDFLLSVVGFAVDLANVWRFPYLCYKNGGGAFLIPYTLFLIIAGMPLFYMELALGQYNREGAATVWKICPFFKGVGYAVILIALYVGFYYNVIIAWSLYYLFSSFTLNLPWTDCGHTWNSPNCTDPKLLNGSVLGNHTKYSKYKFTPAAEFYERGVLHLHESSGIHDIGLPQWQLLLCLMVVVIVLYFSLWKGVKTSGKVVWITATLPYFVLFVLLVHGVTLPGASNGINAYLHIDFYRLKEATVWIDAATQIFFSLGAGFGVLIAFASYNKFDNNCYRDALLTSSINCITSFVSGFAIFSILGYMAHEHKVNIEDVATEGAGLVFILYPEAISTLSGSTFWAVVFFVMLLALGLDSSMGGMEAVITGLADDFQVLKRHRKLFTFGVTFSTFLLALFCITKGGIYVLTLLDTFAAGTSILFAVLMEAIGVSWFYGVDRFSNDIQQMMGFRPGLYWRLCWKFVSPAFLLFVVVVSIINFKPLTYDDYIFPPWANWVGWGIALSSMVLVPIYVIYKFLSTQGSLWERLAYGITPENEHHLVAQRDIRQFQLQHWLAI

[8] = molecular target: Muscarinic acetylcholine receptor M5 (Homo sapiens) (UniProt P08912); settings: Compound concentration 10.0 uM
Sequence of Muscarinic acetylcholine receptor M5 (Homo sapiens) (P08912 whole entry): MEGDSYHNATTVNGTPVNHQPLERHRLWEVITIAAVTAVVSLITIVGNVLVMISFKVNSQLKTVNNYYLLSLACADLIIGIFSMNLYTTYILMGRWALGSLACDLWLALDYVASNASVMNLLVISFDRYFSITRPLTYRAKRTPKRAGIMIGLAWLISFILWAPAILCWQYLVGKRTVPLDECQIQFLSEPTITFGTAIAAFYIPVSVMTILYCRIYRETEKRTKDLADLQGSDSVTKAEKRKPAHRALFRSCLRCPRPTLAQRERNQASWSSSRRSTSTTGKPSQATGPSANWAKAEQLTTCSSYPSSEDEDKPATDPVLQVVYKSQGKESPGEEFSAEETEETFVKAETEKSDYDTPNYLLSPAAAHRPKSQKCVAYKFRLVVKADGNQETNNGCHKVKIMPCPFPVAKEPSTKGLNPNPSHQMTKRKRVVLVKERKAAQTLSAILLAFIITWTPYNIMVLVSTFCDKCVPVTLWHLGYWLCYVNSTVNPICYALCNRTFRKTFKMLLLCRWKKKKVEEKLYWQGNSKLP

[9] = molecular target: MAP kinase-interacting serine/threonine-protein kinase 1 (Homo sapiens) (UniProt Q9BUB5); assay: MKNK1 (MNK1) SelectScreen Kinase panel (LifeTechnologies); settings: Compound concentration 1.0 uM
Sequence of MAP kinase-interacting serine/threonine-protein kinase 1 (Homo sapiens) (Q9BUB5 whole entry, looked up): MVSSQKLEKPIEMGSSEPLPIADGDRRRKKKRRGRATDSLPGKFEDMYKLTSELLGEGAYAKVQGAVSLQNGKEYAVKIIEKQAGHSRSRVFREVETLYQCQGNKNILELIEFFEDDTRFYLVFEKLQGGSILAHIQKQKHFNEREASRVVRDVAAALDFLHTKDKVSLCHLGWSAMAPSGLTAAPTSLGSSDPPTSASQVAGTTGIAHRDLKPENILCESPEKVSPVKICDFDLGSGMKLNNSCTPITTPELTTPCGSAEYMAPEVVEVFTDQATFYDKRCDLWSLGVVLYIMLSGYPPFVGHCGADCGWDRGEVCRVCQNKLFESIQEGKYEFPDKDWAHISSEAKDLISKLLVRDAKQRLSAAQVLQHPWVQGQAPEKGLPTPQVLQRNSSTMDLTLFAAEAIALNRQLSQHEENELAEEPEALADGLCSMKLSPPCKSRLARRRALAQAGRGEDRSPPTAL

Measured: inhibition

Sequence of Receptor tyrosine-protein kinase erbB-2 (Homo sapiens) (P04626 whole entry): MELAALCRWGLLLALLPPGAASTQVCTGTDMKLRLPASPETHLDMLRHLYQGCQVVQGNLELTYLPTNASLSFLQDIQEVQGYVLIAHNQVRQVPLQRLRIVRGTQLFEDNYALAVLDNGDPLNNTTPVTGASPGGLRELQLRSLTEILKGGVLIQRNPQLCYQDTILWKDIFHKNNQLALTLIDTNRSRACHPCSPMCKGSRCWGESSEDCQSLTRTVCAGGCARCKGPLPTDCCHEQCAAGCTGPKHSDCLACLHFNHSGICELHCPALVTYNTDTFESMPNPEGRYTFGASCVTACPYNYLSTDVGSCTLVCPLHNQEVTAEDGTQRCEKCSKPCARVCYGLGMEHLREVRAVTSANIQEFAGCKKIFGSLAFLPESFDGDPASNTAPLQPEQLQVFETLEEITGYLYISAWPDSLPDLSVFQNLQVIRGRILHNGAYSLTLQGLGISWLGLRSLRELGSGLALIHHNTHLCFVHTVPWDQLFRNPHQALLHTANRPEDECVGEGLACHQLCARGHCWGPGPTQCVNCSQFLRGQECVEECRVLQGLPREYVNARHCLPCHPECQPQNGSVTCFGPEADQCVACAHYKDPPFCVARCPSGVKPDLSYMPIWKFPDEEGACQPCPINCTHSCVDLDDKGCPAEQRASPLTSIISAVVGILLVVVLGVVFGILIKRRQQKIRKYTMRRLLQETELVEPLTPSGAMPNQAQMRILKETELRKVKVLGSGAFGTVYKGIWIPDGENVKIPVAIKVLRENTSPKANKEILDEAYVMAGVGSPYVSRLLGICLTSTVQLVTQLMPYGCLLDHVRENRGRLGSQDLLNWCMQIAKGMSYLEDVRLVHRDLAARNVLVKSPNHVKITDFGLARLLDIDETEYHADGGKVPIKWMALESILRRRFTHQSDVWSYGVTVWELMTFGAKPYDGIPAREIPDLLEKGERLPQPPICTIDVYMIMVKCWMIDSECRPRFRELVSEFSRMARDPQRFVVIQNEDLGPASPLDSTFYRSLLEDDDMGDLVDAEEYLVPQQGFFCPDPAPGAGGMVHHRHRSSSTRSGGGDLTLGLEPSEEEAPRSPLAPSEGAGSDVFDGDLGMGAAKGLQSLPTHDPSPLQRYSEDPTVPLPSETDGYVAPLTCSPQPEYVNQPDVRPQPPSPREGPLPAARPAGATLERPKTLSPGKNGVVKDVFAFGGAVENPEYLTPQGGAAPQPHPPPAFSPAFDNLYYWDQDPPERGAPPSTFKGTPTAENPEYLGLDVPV

C=CC(=O)Nc1ccc2[nH]c(=O)n(C3CCN(Cc4ccc(-c5nc6cc[nH]c(=O)c6cc5-c5ccccc5)cc4)CC3)c2c1 [Borussertib]
inactive: [1] 7% | [2] -3% | [3] 5% | [4] 2% | [5] 12.1% | [6] 22.7% | [7] 4.49% | [8] 11.8% | [9] 8%
